Experimental data reported in publication PMC5423977, “Safety, pharmacokinetics, and pharmacodynamics of BMS-986142, a novel reversible BTK inhibitor, in healthy participants” (European Journal of Clinical Pharmacology, 2017).
Like-named read-outs stand apart in the source and are kept apart here.

How the values were obtained:
[1] = Stability of methotrexate and 7-hydroxymethotrexate in human sodium heparin plasma and processed samples (bioanalytical validation); type: physicochemical
Procedure: Method validation was carried out according to the Bristol-Myers Squibb Standard Operating Procedures (SOPs) for chromatographic method validation which conforms to the U.S. FDA’s Good Laboratory Practice (GLP) regulations (21 CFR part 58). The validation experiments included but were not limited to the determination of the lower limit of quantification (LLOQ), specificity, accuracy and precision, recovery, and analyte stability under the expected conditions of sample transfer, sample storage, and sample preparation. The LLOQ of the assay was determined to be 1 ng/mL using six different lots of plasma. No interference from the endogenous components and the internal standard was observed.
The accuracy and precision data for BMS-986142, based on the maximum value from all six QC levels, obtained using one-way ANOVA in Watson are listed in Table 1. The recovery of the analyte from human plasma during extraction was determined at 3 ng/mL and 800 ng/mL for BMS-986142, at 3 ng/mL, 30 ng/mL and 750 ng/mL for methotrexate and 7-hydroxymethotrexate, by comparing the response ratios in human plasma samples spiked with the analyte prior to extraction with those spiked post-extraction. The recovery for BMS-986142 is 89-90%. The recoveries for methotrexate and 7-hydroxymethotrexate are 88-94% and 83-88%, respectively. The room temperature, freeze-thaw, and frozen storage stability of BMS-986142 were evaluated in triplicate or quadruplicate using Low QC, High QC, and Dilution QC. The reinjection integrity was assessed by re-injecting an entire run. The deviations of the mean predicted concentrations of the test samples from the nominal concentrations were used as an indicator of the stability of the analyte.

[2] = test system: animal models of arthritis; set-up: method as in PMID 21752263, PMID 21521773; settings: cited from earlier work
[3] = test system: rat adjuvant-induced arthritis model; set-up: method as in PMID 22228807; settings: alone or in combination with MTX; cited from earlier work
[4] = Effect of BMS-986142 on single-dose plasma PK of MTX (DDI); type: in vivo, human; settings: for AUC(0-inf): read-out: AUC(inf), geometric mean (adjusted); for Cmax: read-out: Cmax, geometric mean (adjusted)
Procedure: Blood samples for the measurement of BMS-986142 were collected up to 168 h after dosing of BMS-986142 on day 1 for participants in SAD. In MAD, blood samples were collected up to 24 h on day 1 and up to 120 h on day 14 (the last day of treatment). Blood samples for the measurement of MTX were collected up to 48 h after dosing of MTX on days 1 and 8.
Plasma samples were analyzed for BMS-986142 levels with a validated method using liquid chromatography tandem mass spectrometry (LC-MS/MS) detection. The analyte was extracted from 50 μL of plasma using a liquid–liquid extraction method. Methyl tert-butyl ether was used as the extraction solvent. The lower limit of quantification (LLOQ) was 1.00 ng/mL in plasma. Plasma samples were analyzed for methotrexate levels using LC-MS/MS detection. Analytes were isolated from 50 μL plasma through solid phase extraction using Waters Oasis MAX, 10-mg, 96-well SPE plates. The final extract was analyzed using LC-MS/MS detection. LLOQ was 1.00 ng/mL in plasma. Detailed methodology quantitating the concentration level of BMS-986142 and MTX is provided in Online Resource 10.
Individual subject pharmacokinetic parameters for BMS-986142 and MTX were derived by a non-compartmental method using validated PK software (WinNonLin version 6.3; Pharsight Corporation, Mountain View, CA, USA). The following PK parameters for BMS-986142 and MTX were derived from plasma concentration versus time data: maximum observed plasma concentration (Cmax); minimum observed plasma concentration (Cmin); time to maximum observed plasma concentration (Tmax); area under the plasma concentration-time curve from time zero to the time of the last quantifiable concentration (AUC(0-T)), from time zero extrapolated to infinite time (AUC(inf)), and in one dosing interval (AUC(TAU)); terminal plasma half-life (T1/2); and AUC accumulation index (AI_AUC). AI_AUC was calculated to divide AUC(TAU) on day 14 by AUC(TAU) on day 1.
Statistical analyses were conducted to assess the effect of coadministration of BMS-986142 on the PK of MTX. For all treatment comparisons, a linear mixed-effect model was fitted to the log-transformed PK parameters Cmax, AUC(0-T), and AUC(inf). Point estimates and 90% CIs for differences on the log-scale were exponentiated to obtain estimates for geometric mean ratios (GMRs) and respective 90% CIs on the original scale. Sample size determination is based on consideration of the precision of the estimate of the GMRs of AUCs of MTX with and without BMS-986142. With 9 evaluable subjects, there will be an 80% probability that the 90% CI of AUC(INF) GMR will be within 89.9 to 111.2% of the point estimate. These precision estimates are based on an assumption that Cmax and AUC(INF) of MTX are log-normally distributed with intrasubject CV of 14.67 and 10.38%, respectively, as calculated from Namour et al..

[5] = Safety (adverse events), Study 2 MTX-DDI in healthy male participants
Procedure: This portion of the study was designed to assess the effect of BMS-986142 on the PK of MTX since MTX is used as a background therapy in RA patients and all patients will receive MTX when the phase 2 study of BMS-986142 is conducted. Eligible participants were confined to the clinical facility for the duration of treatment (15 days). Healthy participants were administered a single oral dose of 7.5 mg MTX on day 1. On day 2, participants received leucovorin (a single oral dose of 15 mg) as a preventive measure for MTX toxicity. After a washout period (days 2–5), BMS-986142 was administered on days 6–10 in 350-mg QD doses. A concomitant dose of MTX (7.5 mg) was administered on day 8, followed by leucovorin (15 mg) on day 9 (Online Resource 2). BMS-986142 was administered with 240 mL of water, and a minimum amount of additional water was permitted to allow dosing of all medications. Only healthy male participants (ages ≥18 to ≤50 years) were eligible for the MTX-DDI assessment in study 2. Other key inclusion and exclusion criteria were identical to those in study 1.
Participants were monitored for adverse events (AEs) throughout the study. Clinical laboratory tests, vital sign measurements, 12-lead ECGs, and physical examinations were performed at selected times throughout the dosing interval. Safety data was recorded in the participants’ medical records, and assessments were performed for emergent AEs or serious AEs (SAEs). For all AEs, causal relationship to the study drug was determined by an investigator.

[6] = 7-hydroxymethotrexate, 24 hours at RT in Plasma, High QC 750
[7] = 7-hydroxymethotrexate, 24 hours at RT in Plasma, Low QC 3.00
[8] = 7-hydroxymethotrexate, 142 h Processed sample stability, High QC 750
[9] = 7-hydroxymethotrexate, 142 h Processed sample stability, Low QC 3.00
[10] = 7-hydroxymethotrexate, 6 days at 5 °C Re-injection integrity, High QC 750
[11] = 7-hydroxymethotrexate, 6 days at 5 °C Re-injection integrity, Low QC 3.00
[12] = 7-hydroxymethotrexate, 449 day at -20 °C in Plasma, High QC 750
[13] = 7-hydroxymethotrexate, 449 day at -20 °C in Plasma, Low QC 3.00
[14] = 7-hydroxymethotrexate, After 4 Freeze-Thaw Cycle in Plasma, High QC 750
[15] = 7-hydroxymethotrexate, After 4 Freeze-Thaw Cycle in Plasma, Low QC 3.00
[16] = methotrexate, 24 hours at RT in Plasma, High QC 750
[17] = methotrexate, 24 hours at RT in Plasma, Low QC 3.00
[18] = methotrexate, 142 h Processed sample stability, High QC 750
[19] = methotrexate, 142 h Processed sample stability, Low QC 3.00
[20] = methotrexate, 6 days at 5 °C Re-injection integrity, High QC 750
[21] = methotrexate, 6 days at 5 °C Re-injection integrity, Low QC 3.00
[22] = methotrexate, 449 day at -20 °C in Plasma, High QC 750
[23] = methotrexate, 449 day at -20 °C in Plasma, Low QC 3.00
[24] = methotrexate, After 4 Freeze-Thaw Cycle in Plasma, High QC 750
[25] = methotrexate, After 4 Freeze-Thaw Cycle in Plasma, Low QC 3.00
[26] = male, human, plasma, oral, Treatment D: single-dose methotrexate 7.5 mg (day 1) + leucovorin 15 mg (day 2)
[27] = male, human, plasma, oral, Treatment F: BMS-986142 350 mg QD + single-dose methotrexate 7.5 mg (day 8) + leucovorin 15 mg (day 9)
[28] = methotrexate with BMS-986142 350 mg QD vs methotrexate alone
[29] = MTX 7.5 mg (Day 1) + leucovorin 15 mg (Day 2), n = 12

## CN(Cc1nc2c(N)nc(N)nc2[nH]c1=O)c1ccc(C(=O)N[C@@H](CCC(=O)O)C(=O)O)cc1 [7-hydroxymethotrexate]
[1]; [6]
  Stability, %Dev: -0.3%
  Stability, Mean Conc.: 747 ng/mL
[1]; [7]
  Stability, %Dev: 9.2%
  Stability, Mean Conc.: 3.28 ng/mL
[1]; [8]
  Stability, %Dev: -8.1%
  Stability, Mean Conc.: 689 ng/mL
[1]; [9]
  Stability, %Dev: -8.7%
  Stability, Mean Conc.: 2.74 ng/mL
[1]; [10]
  Stability, %Dev: 0.4%
  Stability, Mean Conc.: 753 ng/mL
[1]; [11]
  Stability, %Dev: 5.7%
  Stability, Mean Conc.: 3.17 ng/mL
[1]; [12]
  Stability, %Dev: -0.3%
  Stability, Mean Conc.: 747 ng/mL
[1]; [13]
  Stability, %Dev: -10.4%
  Stability, Mean Conc.: 2.69 ng/mL
[1]; [14]
  Stability, %Dev: 0.2%
  Stability, Mean Conc.: 751 ng/mL
[1]; [15]
  Stability, %Dev: 1.4%
  Stability, Mean Conc.: 3.04 ng/mL

## Cc1c(NC(=O)c2cc3c(s2)CCCC3)cccc1-c1cn(C)c(=O)c(Nc2ccc([C@@H]3C(=O)N(C)CCN3C)cc2)n1 [GDC-0834]
[2]
  Efficacy in animal models of arthritis: Dose-dependent efficacy

## C=CC(=O)N1CCC[C@@H](n2nc(-c3ccc(Oc4ccccc4)cc3)c3c(N)ncnc32)C1 [PCI-32765]
[2]
  Efficacy in animal models of arthritis: Dose-dependent efficacy

## CN1CCN(c2ccc(Nc3cc(-c4cccc(-n5ccc6cc(C7CC7)cc(F)c6c5=O)c4CO)cn(C)c3=O)nc2)CC1 [RN486]
[3]
  Efficacy on joint and systemic inflammation: efficacious in reducing joint and systemic inflammation

## CN(Cc1cnc2nc(N)nc(N)c2n1)c1ccc(C(=O)N[C@@H](CCC(=O)O)C(=O)O)cc1 [methotrexate, reference compound]
[1]; [16]
  Stability, %Dev: 0.2%
  Stability, Mean Conc.: 751 ng/mL
[1]; [17]
  Stability, %Dev: -0.1%
  Stability, Mean Conc.: 3.00 ng/mL
[1]; [18]
  Stability, %Dev: -13.1%
  Stability, Mean Conc.: 652 ng/mL
[1]; [19]
  Stability, %Dev: -9.2%
  Stability, Mean Conc.: 2.72 ng/mL
[1]; [20]
  Stability, %Dev: -2.2%
  Stability, Mean Conc.: 734 ng/mL
[1]; [21]
  Stability, %Dev: 3.4%
  Stability, Mean Conc.: 3.10 ng/mL
[1]; [22]
  Stability, %Dev: 0.6%
  Stability, Mean Conc.: 755 ng/mL
[1]; [23]
  Stability, %Dev: -9.9%
  Stability, Mean Conc.: 2.70 ng/mL
[1]; [24]
  Stability, %Dev: -2.1%
  Stability, Mean Conc.: 734 ng/mL
[1]; [25]
  Stability, %Dev: 3.7%
  Stability, Mean Conc.: 3.11 ng/mL
[4]; Treatment D: single-dose methotrexate 7.5 mg (day 1) + leucovorin 15 mg (day 2)
  AUC(0-T), geometric mean (adjusted): 613 ng·h/mL
[4]; [26]
  AUC(0-inf): 625 ng·h/mL
  Cmax: 178 ng/mL
[4]; male, human, plasma, oral, Treatment F: BMS-986142 350 mg QD + single-dose methotrexate 7.5 mg (day 8) + leucovorin 15 mg (day 9), read-out: AUC(0-T), geometric mean (adjusted)
  AUC(0-t): 638 ng·h/mL
[4]; [27]
  AUC(0-inf): 654 ng·h/mL
  Cmax: 186 ng/mL
[4]; [28]
  AUC(0-T), adjusted geometric mean ratio F vs D: 1.041
  AUC(inf), adjusted geometric mean ratio F vs D: 1.045
  Cmax, adjusted geometric mean ratio F vs D: 1.046
[5]; [29]
  AE SOC: Gastrointestinal Disorders: 0 n (%)
  AE SOC: General disorders and administration site conditions: 1 (8.3) n (%)
  AE SOC: Infections and infestations: 0 n (%)
  AE SOC: Injury, poisoning and procedural complications: 0 n (%)
  AE SOC: Nervous system disorders: 1 (8.3) n (%)
  AE SOC: Psychiatric disorders: 0 n (%)
  AE: Anxiety: 0 n (%)
  AE: Arthropod Bite: 0 n (%)
  AE: Asthenia: 1 (8.3) n (%)
  AE: Dizziness: 1 (8.3) n (%)
  AE: Fatigue: 0 n (%)
  AE: Headache: 0 n (%)
  AE: Nausea: 0 n (%)
  AE: Sleep Disorder: 0 n (%)
  AE: Tremor: 1 (8.3) n (%)
  Total participants with an event: 1 (8.3) n (%)
[5]; Study 2, single-dose MTX on day 1
  Number of AEs reported: Three
